According to patent US12538924B2, “Pesticidally active heterocyclic derivatives with sulfur containing substituents” (SYNGENTA CROP PROTECTION AG, priority 2019, dated 2026):

Legend:
Type in all cases: in vivo
[1] = tested on: Bemisia tabaci (Cotton White Fly); experiment: Bemisia tabaci (Cotton White Fly): Feeding/Contact Activity; conditions: foliar, 144 h, application rate of 200 ppm, adult white flies on sprayed cotton leaf discs, 6 days after incubation
Procedure: Example B1: Bemisia tabaci (Cotton White Fly): Feeding/Contact Activity
Cotton leaf discs were placed on agar in 24-well microtiter plates and sprayed with aqueous test solutions prepared from 10'000 ppm DMSO stock solutions. After drying the leaf discs were infested with adult white flies. The samples were checked for mortality 6 days after incubation.

[2] = tested on: Diabrotica Balteata (Corn Root Worm); experiment: Diabrotica balteata (Corn Root Worm), sprayed maize sprouts; conditions: 96 h, application rate of 200 ppm, L2 larvae on sprayed maize sprouts, 4 days after infestation, read-out: effect in at least one of the two categories (mortality or growth inhibition)
Procedure: Example B2: Diabrotica Balteata (Corn Root Worm)
Maize sprouts placed onto an agar layer in 24-well microtiter plates were treated with aqueous test solutions prepared from 10'000 ppm DMSO stock solutions by spraying. After drying, the plates were infested with L2 larvae (6 to 10 per well). The samples were assessed for mortality and growth inhibition in comparison to untreated samples 4 days after infestation.

[3] = tested on: Euschistus heros (Neotropical Brown Stink Bug); experiment: Euschistus heros (Neotropical Brown Stink Bug), sprayed soybean leaves; conditions: 120 h, application rate of 200 ppm, N2 nymphs on sprayed soybean leaves, 5 days after infestation, read-out: effect in at least one of the two categories (mortality or growth inhibition)
Procedure: Example B3: Euschistus heros (Neotropical Brown Stink Bug)
Soybean leaves on agar in 24-well microtiter plates were sprayed with aqueous test solutions prepared from 10'000 ppm DMSO stock solutions. After drying the leaves were infested with N2 nymphs. The samples were assessed for mortality and growth inhibition in comparison to untreated samples 5 days after infestation.

[4] = tested on: Plutella xylostella (Diamond Back Moth); experiment: Plutella xylostella (Diamond Back Moth), treated artificial diet; conditions: 192 h, application rate of 200 ppm, eggs on treated artificial diet, 8 days after infestation, read-out: effect in at least one of the two categories (mortality or growth inhibition)
Procedure: Example B5: Plutella xylostella (Diamond Back Moth)
24-well microtiter plates with artificial diet were treated with aqueous test solutions prepared from 10'000 ppm DMSO stock solutions by pipetting. After drying, Plutella eggs were pipetted through a plastic stencil onto a gel blotting paper and the plate was closed with it. The samples were assessed for mortality and growth inhibition in comparison to untreated samples 8 days after infestation.

[5] = tested on: Myzus persicae (Green Peach Aphid); experiment: Myzus persicae (Green Peach Aphid): Feeding/Contact Activity; conditions: foliar, 144 h, application rate of 200 ppm, aphid population of mixed ages on sprayed sunflower leaf discs, 6 days after infestation
Procedure: Example B6: Myzus persicae (Green Peach Aphid): Feeding/Contact Activity
Sunflower leaf discs were placed onto agar in a 24-well microtiter plate and sprayed with aqueous test solutions prepared from 10'000 ppm DMSO stock solutions. After drying, the leaf discs were infested with an aphid population of mixed ages. The samples were assessed for mortality 6 days after infestation.

[6] = tested on: Myzus persicae (Green Peach Aphid); experiment: Myzus persicae (Green Peach Aphid): Systemic Activity; conditions: 144 h, test rate of 24 ppm, roots of infested pea seedlings placed into test solutions, 6 days
Procedure: Example B7: Myzus persicae (Green Peach Aphid): Systemic Activity
Roots of pea seedlings infested with an aphid population of mixed ages were placed directly into aqueous test solutions prepared from 10'000 DMSO stock solutions. The samples were assessed for mortality 6 days after placing seedlings into test solutions.

[7] = tested on: Spodoptera littoralis (Egyptian Cotton Leaf Worm); experiment: Spodoptera littoralis (Egyptian Cotton Leaf Worm), sprayed cotton leaf discs; conditions: foliar, 72 h, application rate of 200 ppm, L1 larvae on sprayed cotton leaf discs, 3 days after infestation, read-out: control (mortality, anti-feeding effect or growth inhibition)
Procedure: Example B8: Spodoptera littoralis (Egyptian Cotton Leaf Worm)
Cotton leaf discs were placed onto agar in 24-well microtiter plates and sprayed with aqueous test solutions prepared from 10'000 ppm DMSO stock solutions. After drying the leaf discs were infested with five L1 larvae. The samples were assessed for mortality, anti-feeding effect, and growth inhibition in comparison to untreated samples 3 days after infestation. Control of Spodoptera littoralis by a test sample is given when at least one of the categories mortality, anti-feedant effect, and growth inhibition is higher than the untreated sample.

[8] = tested on: Nilaparvata lugens (Brown Plant Hopper); experiment: Nilaparvata lugens (Brown Plant Hopper): Larvicide, Feeding/Contact; conditions: 168 h, application rate of 50 ppm, N3 nymphs on sprayed rice plants, 7 days after the treatment
Procedure: Example B10: Nilaparvata lugens (Brown Plant Hopper): Larvicide, Feeding/Contact
Rice plants were treated with the diluted test solutions in a spray chamber. After drying plants were infested with ˜20 N3 nymphs. 7 days after the treatment samples were assessed for mortality and growth regulation.

[9] = tested on: Nilaparvata lugens (Brown Plant Hopper); experiment: Nilaparvata lugens (Brown Plant Hopper): Igr, Feeding/Contact; conditions: 360 h, application rate of 50 ppm, sprayed rice plants, N3 nymphs, assessed for effect on F1 generation 15 days after the treatment
Procedure: Example B11: Nilaparvata lugens (Brown Plant Hopper): Igr, Feeding/Contact
Rice plants were treated with the diluted test solutions in a spray chamber. After drying plants were infested with ˜20 N3 nymphs. 7 days after treatment adults were removed and 15 days after the treatment samples were assessed for effect on F1 generation.

[10] = tested on: Nilaparvata lugens (Brown Plant Hopper); experiment: Nilaparvata lugens (Brown Plant Hopper): Larvicide, Systemic into Water; conditions: 168 h, test rate of 12.5 ppm, rice plants in nutritive solution, N3 nymphs, 7 days after infestation
Procedure: Example B12: Nilaparvata lugens (Brown Plant Hopper): Larvicide, Systemic into Water
Rice plants cultivated in a nutritive solution were treated with the diluted test solutions into nourishing cultivation system. 1 day after application plants were infested with ˜20 N3 nymphs. 7 days after infestation samples were assessed for mortality and growth regulation.

[11] = tested on: Frankliniella occidentalis (Western Flower Thrips); experiment: Frankliniella occidentalis (Western Flower Thrips): Feeding/Contact Activity; conditions: foliar, 168 h, application rate of 200 ppm, population of mixed ages on sprayed sunflower leaf discs, 7 days after infestation
Procedure: Example B4: Frankliniella occidentalis (Western Flower Thrips): Feeding/Contact Activity
Sunflower leaf discs were placed on agar in 24-well microtiter plates and sprayed with aqueous test solutions prepared from 10'000 DMSO stock solutions. After drying the leaf discs were infested with a Frankliniella population of mixed ages. The samples were assessed for mortality 7 days after infestation.

[12] = tested on: Tetranychus urticae (Two-Spotted Spider Mite); experiment: Tetranychus urticae (Two-Spotted Spider Mite): Feeding/Contact Activity; conditions: foliar, 192 h
Procedure: Example B9: Tetranychus urticae (Two-Spotted Spider Mite): Feeding/Contact Activity
Bean leaf discs on agar in 24-well microtiter plates were sprayed with aqueous test solutions prepared from 10'000 ppm DMSO stock solutions. After drying the leaf discs were infested with a mite population of mixed ages. The samples were assessed for mortality on mixed population (mobile stages) 8 days after infestation.

CCS(=O)(=O)c1ccc(N(C)C(=O)C2CC2)nc1N1Cc2cnc(C(F)(F)F)cc2C1=O [Compound P18, N-[5-ethylsulfonyl-6-[1-oxo-6-(trifluoromethyl)-3H-pyrrolo[3,4-c]pyriclin-2-yl]-2-pyridyl]-N-methyl-cyclopropanecarboxamide]
≥ 80%: mortality at 200 ppm [1] | percent effect (mortality or growth inhibition) at 200 ppm [2] | percent effect (mortality or growth inhibition) at 200 ppm [3] | percent effect (mortality or growth inhibition) at 200 ppm [4] | mortality at 200 ppm [5] | mortality at 24 ppm [6] | percent control (mortality, anti-feedant effect or growth inhibition) at 200 ppm [7] | mortality at 50 ppm [8] | mortality at 50 ppm [9] | mortality at 12.5 ppm [10]

CCS(=O)(=O)c1cc(C2(C#N)CC2)cnc1N1Cc2cnc(C(F)(F)F)cc2C1=O [Compound P8, 1-[5-ethylsulfonyl-6-[1-oxo-6-(trifluoromethyl)-3H-pyrrolo[3,4-c]pyridin-2-yl]-3-pyridyl]cyclopropanecarbonitrile]
≥ 80%: mortality at 200 ppm [1] | percent effect (mortality or growth inhibition) at 200 ppm [2] | percent effect (mortality or growth inhibition) at 200 ppm [3] | mortality at 200 ppm [11] | percent effect (mortality or growth inhibition) at 200 ppm [4] | mortality at 200 ppm [5] | mortality at 24 ppm [6] | percent control (mortality, anti-feedant effect or growth inhibition) at 200 ppm [7] | mortality at 50 ppm [8] | mortality at 50 ppm [9] | mortality at 12.5 ppm [10]

CCS(=O)(=O)c1cc(C2(C#N)CC2)cnc1N1Cc2ncc(C(F)(F)F)cc2C1=O [Compound P11, 1-[5-ethylsulfonyl-6-[5-oxo-3-(trifluoromethyl)-7H-pyrrolo[3,4-b]pyridin-6-yl]-3-pyridyl]cyclopropanecarbonitrile]
≥ 80%: mortality at 200 ppm [1] | percent effect (mortality or growth inhibition) at 200 ppm [2] | percent effect (mortality or growth inhibition) at 200 ppm [3] | percent effect (mortality or growth inhibition) at 200 ppm [4] | mortality at 200 ppm [5] | mortality at 24 ppm [6] | percent control (mortality, anti-feedant effect or growth inhibition) at 200 ppm [7] | mortality at 50 ppm [8] | mortality at 50 ppm [9] | mortality at 12.5 ppm [10]

N#CC1(c2cnc(N3Cc4cnc(C(F)(F)F)cc4C3=O)c(S(=O)(=O)CC3CC3)c2)CC1 [Compound P28, 1-[5-(cyclopropylmethylsulfonyl)-6-[1-oxo-6-(trifluoromethyl)-3H-pyrrolo[3,4-c]pyridin-2-yl]-3-pyridyl]cyclopropanecarbonitrile]
≥ 80%: mortality at 200 ppm [1] | percent effect (mortality or growth inhibition) at 200 ppm [2] | percent effect (mortality or growth inhibition) at 200 ppm [3] | percent effect (mortality or growth inhibition) at 200 ppm [4] | mortality at 200 ppm [5] | percent control (mortality, anti-feedant effect or growth inhibition) at 200 ppm [7] | mortality at 200 ppm [12]

CCS(=O)(=O)c1ccc(-n2cncn2)nc1N1Cc2cnc(C(F)(F)F)cc2C1=O [Compound P5, 2-[3-ethylsulfonyl-6-(1,2,4-triazol-1-yl)-2-pyridyl]-6-(trifluoromethyl)-3H-pyrrolo[3,4-c]pyridin-1-one]
≥ 80%: mortality at 200 ppm [1] | percent effect (mortality or growth inhibition) at 200 ppm [2] | percent effect (mortality or growth inhibition) at 200 ppm [3] | percent effect (mortality or growth inhibition) at 200 ppm [4] | mortality at 200 ppm [5] | mortality at 24 ppm [6] | percent control (mortality, anti-feedant effect or growth inhibition) at 200 ppm [7] | mortality at 50 ppm [8] | mortality at 50 ppm [9] | mortality at 12.5 ppm [10]

CCS(=O)(=O)c1cc(C(F)(F)F)cnc1N1Cc2cnc(C(F)(F)F)cc2C1=O [Compound P10, 2-[3-ethylsulfonyl-5-(trifluoromethyl)-2-pyridyl]-6-(trifluoromethyl)-3H-pyrrolo[3,4-c]pyridin-1-one]
≥ 80%: mortality at 200 ppm [1] | percent effect (mortality or growth inhibition) at 200 ppm [2] | percent effect (mortality or growth inhibition) at 200 ppm [3] | percent effect (mortality or growth inhibition) at 200 ppm [4] | mortality at 200 ppm [5] | mortality at 24 ppm [6] | percent control (mortality, anti-feedant effect or growth inhibition) at 200 ppm [7] | mortality at 50 ppm [8] | mortality at 50 ppm [9] | mortality at 12.5 ppm [10]

CCS(=O)(=O)c1cc(N(C)C(C)=O)cnc1N1Cc2cnc(C(F)(F)F)cc2C1=O [Compound P3, N-[5-ethylsulfonyl-6-[1-oxo-6-(trifluoromethyl)-3H-pyrrolo[3,4-c]pyridin-2-yl]-3-pyridyl]-N-methyl-acetamide]
≥ 80%: percent effect (mortality or growth inhibition) at 200 ppm [2] | percent effect (mortality or growth inhibition) at 200 ppm [3] | mortality at 200 ppm [11] | percent effect (mortality or growth inhibition) at 200 ppm [4] | mortality at 200 ppm [5] | mortality at 24 ppm [6] | percent control (mortality, anti-feedant effect or growth inhibition) at 200 ppm [7] | mortality at 50 ppm [8] | mortality at 50 ppm [9] | mortality at 12.5 ppm [10]
